Where a name gives a salt, the structure may show the parent alone.

One series has as its system FAS or TRAIL receptors. Nature of the series: Surface expression of FAS or TRAIL receptors by flow cytometry. It counts as cell-based, human. The settings on record: PPC-1 cells, flow cytometry (data not shown). The source says:
Furthermore, since these compounds sensitize to both FAS and TRAIL, they presumably act distal to death receptors.
(In general: A flow cytometer gives signals particle by particle.)

The subject of series [1] is PPC-1 cells. The series can be described thus: MTT cell viability of PPC-1 cells treated with compound with or without CH-11 anti-FAS antibody. Particulars: for IC50: Homo sapiens, PPC-1, 24 h, compound alone without CH-11, MTT 24 hours, read-out: LD50 (μM) PPCl; for LD50 (μM) (PPCl, CH-11): PPC-1 cells with CH-11 100 ng/mL, MTT 24 hours, LD50 = concentration that reduces cell viability by 50%. It counts as cell-based. The method, then:
FIGS. 2A-C. […] PPC-1 cells (1×10^4) were seeded in 96 well plates. The next day, cells were treated with increasing concentrations of the sensitizing compounds with (open squares) and without (closed squares) CH-11 antibody (100 ng/mL). Cell viability was measured 24 hours later by MTT assay. Cell viability is expressed as a mean percentage of untreated cells+SD (n=3). The Chembridge identification numbers of the compounds are provided.
High throughput screening. […] PPC-1 cells (1×10^4) were seeded overnight into 96 well, flat-bottom plates (Costar, Cambridge, Mass.) in 100 μL of medium containing 2.5% FCS. […] CH-11 antibody (100 ng/mL) was then added, and the cells were incubated for 24 hours before assessing cell viability by a 3-(4,5-Dimethylthiazol-2-yl)-2,5-diphenyltetrazolium Bromide (MTT) dye reduction assay (Sigma).
Cell death assays. […] Absorbance readings were plotted against a standard curve to derive the corresponding cell number, and cell viability was expressed as a percentage relative to untreated cells.

For series [2], the system named is PPC-1 cells. Nature of the series: Annexin V apoptosis of PPC-1 cells with CH-11 and sensitizer, with or without zVAD-fmk. The settings on record: zVAD-fmk 100 μM, annexin V staining. The series is classed as cell-based, human. The method, then: (§1) FIG. 6. Characterization of the mechanism of FAS-sensitizing compounds. (A) PPC-1 cells (1×10^5) were seeded in 24 well plates. The next day, cells were treated with CH-11 antibody (100 ng/mL) and 30 μM 6094911, 5809354, or 5569100 with (square) or without (diamond) caspase inhibitor z-VAD-fmk (100 μM). Apoptosis was measured 24 hours later by Annexin V staining, expressing data as percentage of Annexin V-negative (“viable”) cells (mean+SD) (n=3). (B) PPC-1 cells (2×10^5) were seeded in 6 well plates and co-transfected with plasmids encoding Bcl-XL, Crm A, or empty vector along with a green fluorescent protein (GFP) encoding plasmid to identify successfully transfected cells. After 48 hours, cells were treated with CH-11 antibody (100 ng/mL) and 6094911 (30 μM), 5809354 (30 μM), or 5569100 (15 μM). As a positive control, transfected cells were treated with staurosporine (0.5 μM) (STS). Apoptotic cells were identified by morphological assessment of the GFP-positive cells, and data were expressed as the percentage of nonapoptotic (“viable”) cells (mean+SD) (n=3).
Cell death assays. Cell viability was measured by MTT and MTS assays, essentially as described in Schimmer et al. (2004). Absorbance readings were plotted against a standard curve to derive the corresponding cell number, and cell viability was expressed as a percentage relative to untreated cells. Apoptosis was measured by flow cytometric analysis of Annexin V surface expression after staining cells with FITC-anti-Annexin V and propidium iodide (PI) (Biovision, Mountain View, Calif.), as described in Pederson et al. (2002).
To further assess the mechanism of the 8 compounds that selectively modulated tumor sensitivity to extrinsic pathway stimuli, the effects of benzoyl-Val-Ala-Asp-fluoromethylketone (zVAD-fmk), a broad-spectrum irreversible inhibitor of caspase-family proteases (Enzyme Systems, Dublin, Calif.) was tested. Accordingly, PPC-1 cells were treated with CH-11 and sensitizers such as 6094911, 5809354, and 5569100 with and without zVAD-fmk (100 μM) for […]. Apoptosis was then measured by annexin V staining.

The subject of series [3] is PPC-1 cells. Nature of the series: Apoptosis of PPC-1 cells transfected with CrmA or Bcl-XL, treated with CH-11 and compound. It counts as cell-based, human. The settings on record: for protection by Bcl-XL against apoptosis: PPC-1 cells transfected with Bcl-XL; for protection by CrmA against apoptosis induced by CH-11 plus compound: PPC-1 cells transfected with CrmA. As to the method:
as §1
Cell transfections. PPC-1 cells (2×10^5) were seeded in 35 mm diameter plates in RPMI with 10% FCS. The next day the cells were co-transfected using Lipofectamine Plus (Invitrogen, Carlsbad, Calif.) with 0.5 μg GFP-encoding plasmid pEGFP (Invitrogen) in combination with 1.5 μg of plasmids encoding Bcl-XL, the viral caspase-8 inhibitor Crm A, or empty vector. At 2 days post-transfection, cells were incubated with various concentrations of CH-11 antibody and the test compounds for 24 hours, then the percentage apoptosis was scored by UV-microscopic analysis of the GFP-positive cells, counting a minimum of 200 cells. Cells that had rounded up and were floating in the medium were counted as non-viable, while cells that remained adherent to the plate with normal morphological features were counted as viable.
To further address the specificity of the compounds for the extrinsic pathway, the effects of selective apoptosis inhibitory genes were examined. For these experiments, PPC-1 cells were transfected with plasmids encoding CrmA, a viral protein that blocks the extrinsic pathway by inhibiting caspase-8 (Zhou et al., 1997) or encoding Bcl-xL, a mitochondria-targeting protein that blocks the intrinsic pathway by inhibiting release of cytochrome c (Boise et al., 1993; Kharbanda et al., 1997). After transfection, cells were treated with CH-11 antibody and compounds 6094911, 5809354, or […] scoring the percentage of apoptotic cells among the successfully transfected cells as determined by co-transfection of a GFP-marker plasmid.

Consider `CC(=O)CC(=O)Nc1ccc(Cl)c(C(F)(F)F)c1` [compound 6094911, N-[4-chloro-3-(trifluoromethyl)phenyl]-3-oxobutanamide], for which the “surface expression of FAS or TRAIL receptors” value (shortened to “surface expression”) with FAS or TRAIL receptors is listed as “did not change”. In the series with PPC-1 cells [1] (PPC-1 cells), the IC50 was over 100 µM. The “LD50 (μM) (PPCl, CH-11)” value in the series with PPC-1 cells [1] was 35+4 μM. Further, the “LD50 (μM) (PPCl, CH-11)” value in the series on PPC-1 cells [1] (listed as N-[4-chloro-3-(trifluoromethyl)phenyl]-3-oxobutanamide) is 35 ± 4 µM. Also, in the series on PPC-1 cells [1] (PPC-1 cells, compound alone, concentrations up to 80 μM), the direct toxicity result is on record as “little direct toxicity”. Moreover, in the series with PPC-1 cells [2], the “effect of zVAD-fmk on sensitization to CH-11” value (“effect of zVAD-fmk” below) is given as “zVAD-fmk blocked sensitization to CH-11”. In addition, in the series with PPC-1 cells [3], the “protection by Bcl-XL against apoptosis” value is “no protective effect” and the “protection by CrmA against apoptosis induced by CH-11 plus compound” value (from here on “protection by CrmA”) is on record as “almost completely protected”.

Turning to `CN[C@@H]1C[C@H]2O[C@@](C)([C@@H]1OC)n1c3ccccc3c3c4c(c5c6ccccc6n2c5c31)C(=O)NC4` [staurosporine, reference compound], in the series on PPC-1 cells [3], the “protection by Bcl-XL against apoptosis” value is “Bcl-XL but not Crm A protected”.

In the case of “4-(4-chloro-2-methylphenoxy)-N-hydroxybutanamide [compound 5809354]”, the “surface expression” value with FAS or TRAIL receptors was “did not change”. For the same compound, in the series on PPC-1 cells [1], the “LD50 (μM) (PPCl, CH-11)” value is on record as 20+2 μM. Also, in the series on PPC-1 cells [2], the “effect of zVAD-fmk” value is reported as “zVAD-fmk blocked sensitization to CH-11”. Moreover, in the series on PPC-1 cells [3], the “protection by Bcl-XL against apoptosis” value is “no protective effect” and the “protection by CrmA” value is “almost completely protected”.

For `CCn1c(=N)n(CC(=O)c2cc(C(C)(C)C)c(O)c(C(C)(C)C)c2)c2ccccc21` [compound 5569100, 1-(3,5-di-tert-butyl-4-hydroxyphenyl)-2-(3-ethyl-2-imino-2,3-dihydro-1H-benzo[d]imidazol-1-yl)ethanone hydrobromide], the “surface expression” value in the series with FAS or TRAIL receptors is on record as “did not change”. The IC50 in the series with PPC-1 cells [1] (PPC-1 cells) came out at 15 µM. The “toxicity when added alone relative to 5541203” value in the series with PPC-1 cells [1] (PPC1 cells, without anti-FAS antibody) was 3 times. Moreover, the “LD50 (μM) (PPCl, CH-11)” value in the series with PPC-1 cells [1] is 5.6 µM. Further, the “combination Index (CI)” value in the series on PPC-1 cells [1] (combined with CH-11, median-dose combination index (Chou, 1991), synergy) was “did not demonstrate synergy”. Besides, in the series with PPC-1 cells [2], the “effect of zVAD-fmk” value is “zVAD-fmk blocked sensitization to CH-11”. Also, in the series with PPC-1 cells [3], the “protection by Bcl-XL against apoptosis” value was “no protective effect” and the “protection by CrmA” value is recorded as “almost completely protected”.

The record behind these values is US8008354B2, “Death receptor sensitizing compounds and methods of use therefor” (Burnham Institute for Medical Research, priority 2006, dated 2011).
